This test has as its system HA-DISC1, HEK293 cells. The test is described as follows: HA-DISC1 protein level in transfected HEK293 cells. In kind it is cell-based, human. The settings on record: MG132 10 μM, Figure 1c, n=3. The procedure:
HEK293 cells were sourced from ATCC (CRL-1573) and cultured as described in the manufacturer’s protocol. DMEM (SIGMA) supplemented with 10% fetal bovine serum, 2 mM L-glutamine, […] penicillin-streptomycin at 37 °C in a humidified atmosphere of 5% CO2. The cells were passaged at about 80% confluency. Cells were transfected with plasmid DNA using polyfect transfection reagent (Qiagen) according to the manufacturer’s instructions. HEK293 cells were treated with the pharmacological agents cycloheximide (C7698) and MG132 (M7449) (Sigma-Aldrich) or DISC1 disruptor peptides (custom synthesized by Severn Biotech) as described in the text.
Briefly, detergent-soluble proteins were isolated from cells by disruption in lysis buffer 20 mM Tris-HCl (pH 7.5), 150 mM NaCl, 1 mM Na2EDTA, 1 mM EGTA, 1% triton, 2.5 mM sodium pyrophosphate, 1 mM β-glycerophosphate, 1 mM Na3VO4, 1 μg ml^–1 leupeptin, 10 mM DTT with Roche protease inhibitor, phosSTOP (Roche, 04906837001). Detergent-insoluble proteins were removed by centrifugation at 10 000 g for 10 min, and the soluble fraction was retained. Cell lysates were adjusted to equal protein amount (1 μg μl^–1) using cell lysis buffer. Cell lysates normalized for the protein concentration were incubated with mouse IgG (Millipore, 12487) Protein A agarose beads for 2 h at 4 °C. […] The complexes were analyzed on SDS PAGE. […]

Results on one molecule are retold here after publication PMC5984089, “FBXW7 regulates DISC1 stability via the ubiquitin-proteosome system” (Molecular Psychiatry, 2017).

Residues, ends and D or L forms follow the SMILES beside them. *: point of attachment. Cbz = O=C(OCc1ccccc1)*

For `CC(C)C[C@@H](C=O)NC(=O)[C@H](CC(C)C)NC(=O)[C@H](CC(C)C)NC(=O)OCc1ccccc1` [MG132] (Cbz-Leu-Leu-Leu-aldehyde), the “HA-DISC1 protein expression after MG132” value was “transiently increased”.
